Results as given in patent US20100266618A1, “COMPOSITIONS AND METHODS FOR AUGMENTING ACTIVITY OF ONCOLYTIC VIRUSES” (priority 2009, published 2010).
Where two headings read alike, the source gives them in different places.

Assays:
[1] = test system: OVCAR-8 (ovarian carcinoma) cells; type: cell-based, human
[2] = test system: U373 (glioblastoma) cells; type: cell-based, human
U373 cells = test: In vitro cytotoxicity assays with small molecules followed by Maraba virus infection; settings: for enhancement of viral oncolysis (cell viability): viability 48 h later
[3] = test system: NCI-H226 (non-small cell lung carcinoma) cells; test: Genome-wide synthetic lethal RNAi screen with Maraba virus infection, resazurin cell viability; settings: synthetic lethal hits, siRNA against the gene plus Maraba virus
[4] = siRNA against the named gene plus Maraba virus, synthetic lethal hit list
[5] = synthetic lethal hits, siRNA against the gene plus Maraba virus

Molecule: NODAL
- COMPOSITE MAD SCORE OVCAR8 [1, 4]: −4.721
- COMPOSITE MAD SCORE U373 [2, 4]: −2.315

Molecule: tunicamycin [reference compound]
- virus-mediated killing after chemically induced ER preload (U373 cells; pulse 48 hours before virus infection (5 ug/mL 24 h, 24 h washout)): enhance virus-mediated killing

Molecule: BMP4
- COMPOSITE MAD SCORE NCIH226 [3]: −2.642
- COMPOSITE MAD SCORE OVCAR8 [1, 5]: −2.516
- COMPOSITE MAD SCORE U373 [2, 5]: −2.038

Molecule: COc1cc(-c2cccc(C(N)=O)c2)cc(C=O)c1O [Compound 2, 3′-formyl-4′-hydroxy-5′-methoxy-[1,1′-biphenyl]-3-carboxamide]
- lowest, maximally effective dose in cell culture experiments (U373 cells): 20 µM
- combination index (CI) with Maraba virus (U373 cells; U373, across a range of doses and MOIs): < 1.0
- enhancement of viral oncolysis (cell viability) (U373 cells; U373, drug 4 h prior to Maraba virus infection): but not 4 hours
- enhancement of viral oncolysis (cell viability) (U373 cells; U373, drug 48 h prior to Maraba virus infection): greatly enhanced viral oncolysis
